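Cells were grown in 96-well plates and exposed to each compound for 48 hours at five concentrations; endpoints were interpolated linearly between bracketing concentrations, or set to the highest concentration if not reached. The concentration for 50% growth inhibition is given as GI50. TGI denotes the concentration required for complete inhibition of growth.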
Tests used:
Experiment in all cases: DTP human tumour cell line panel, 48 h
786-0 renal = tested on: 786-0 renal
CCRF-CEM leukemia = tested on: CCRF-CEM leukemia
HCC-2998 colon = tested on: HCC-2998 colon
HCT-116 colon = tested on: HCT-116 colon
LOX IMVI melanoma = tested on: LOX IMVI melanoma
NCI-H460 lung = tested on: NCI-H460 lung
NCI-H522 lung = tested on: NCI-H522 lung
RXF 393 renal = tested on: RXF 393 renal
DU-145 prostate = tested on: DU-145 prostate
MCF7 breast = tested on: MCF7 breast

Row | SMILES | TGI (786-0 renal) [µM] | TGI (CCRF-CEM leukemia) [µM] | TGI (HCC-2998 colon) [µM] | TGI (HCT-116 colon) [µM] | TGI (LOX IMVI melanoma) [nM] | TGI (NCI-H460 lung) [µM] | TGI (NCI-H522 lung) [µM] | TGI (RXF 393 renal) [µM] | GI50 (786-0 renal) [nM] | GI50 (DU-145 prostate) [µM] | TGI (DU-145 prostate) [µM] | GI50 (HCC-2998 colon) [nM] | GI50 (HCT-116 colon) [nM] | GI50 (LOX IMVI melanoma) [nM] | GI50 (MCF7 breast) [nM] | TGI (MCF7 breast) [µM] | GI50 (NCI-H460 lung) [nM] | GI50 (NCI-H522 lung) [nM] | GI50 (RXF 393 renal) [nM] | GI50 (CCRF-CEM leukemia) [µM]
1 | O=C(CCc1ccccc1)On1nnc2ccccc2c1=O | > 100 | > 100 | > 100 | > 100 | > 100000 | > 100 | > 100 | > 100 | – | – | – | – | – | – | – | – | – | – | – | –
2 | O=C(NCCN1CCOCC1)Nc1ccc(-c2cc3c(Nc4ccc(Oc5cccc(C(F)(F)F)c5)c(Cl)c4)ncnc3s2)cc1 | 1.6 | – | 3.77 | 5.05 | 1580 | 2.54 | 2.26 | 2.55 | 670 | 2.93 | 9.26 | 1190 | 1490 | 841 | 1110 | 3.27 | 1120 | 910 | 653 | –
3 | O=C(O)C(Br)C(Br)c1ccccc1[N+](=O)[O-] (centres undefined) | > 100 | – | > 100 | > 100 | > 100000 | > 100 | > 100 | > 100 | – | – | > 100 | – | – | – | – | > 100 | – | – | – | –
4 | COc1ccc(OC)c(-c2cc(-c3ccccc3)nn2-c2ccc(S(N)(=O)=O)cc2)c1 | 24.6 | > 100 | 37.9 | – | – | 77.3 | 30 | – | 11900 | 15.6 | 29.5 | 23000 | – | – | 3080 | 16 | 11000 | 8040 | – | 4.17
5 | CCN(CC)CCCCCOc1cc(O)c2c(=O)cc(-c3ccccc3)oc2c1 | 3.81 | – | 2.35 | 3.52 | 2960 | 5.48 | 5.13 | 3.37 | 1970 | 4.61 | 17.4 | 386 | 1740 | 1570 | 1660 | 3.83 | 2240 | 2230 | 1600 | –
6 | CN(/N=C/c1ccnc2ccccc12)c1ccc([N+](=O)[O-])cc1[N+](=O)[O-] | 74.6 | > 100 | > 100 | – | > 100000 | > 100 | > 100 | > 100 | – | – | – | – | – | – | – | – | – | – | – | –
7 | CN1CCN(Cc2ccc(NC(=O)c3[nH]ncc3Nc3ncnc4sccc34)cc2)CC1 | > 100 | – | – | – | 1070 | > 100 | – | 0.535 | 351 | 0.35 | > 100 | – | – | 213 | 126 | > 100 | 284 | – | 171 | –
8 | Cc1cccc2c1Oc1cc(Cl)ccc1C2NC(=O)CN(C)C (centres undefined) | 41.4 | > 100 | > 100 | > 100 | > 100000 | > 100 | – | 87.8 | – | – | – | – | – | – | – | – | – | – | – | –
9 | O=C(O)c1ccc(N=Nc2cc(S(=O)(=O)O)c3cccnc3c2O)cc1 | > 100 | – | > 100 | > 100 | > 100000 | > 100 | – | > 100 | – | – | – | – | – | – | – | – | – | – | – | –
